This is an account of results in patent US20120115896A1, “ISOGENIC HUMAN CELL LINES COMPRISING MUTATED CANCER ALLELES AND PROCESS USING THE CELL LINES” (priority 2008, published 2012).

For assay [1], the system named is hTERT-HME1 WT, PIK3CA E545K and H1047R KI cells. The experiment in a line: CFSE time-course of cell divisions by flow cytometry. The format is cell-based, human. The settings on record: everolimus 500 nM, 7 days. Here is the method: (A) CFSE-labelled cells were analyzed by flow cytometry at the indicated time-points (top panels). The maximum fluorescence intensity for all samples was recorded at day 0 (depicted in filled black). […] (B) Cells of the indicated genotype were incubated with everolimus 500 nM for 48 h, after which cell cycle was analyzed by flow cytometry. No increase of the subG1 apoptotic fraction of cells was observed upon treatment. Representative data from 3 independent experiments are shown.
For time-course experiments, on the initial day hTERT-HME1 cells were labelled with 3 μM CFSE (5-(and -6)-carboxyfluorescein diacetate, succinimidyl ester, Invitrogen C1157, Milan, Italy) in PBS in the dark for 30 minutes. After washing and recording baseline fluorescence, cells were plated in media containing 1% FBS and 2 ng/mL EGF, and treatment with everolimus was initiated, replenishing the drug on a daily basis. For cell cycle analysis, trypsinized cells were washed with PBS and cell nuclei DNA were stained with propidium iodide (PI) for at least 120 minutes using a commercial kit (DNA con 3, Consul T.S., Orbassano, Italy).
All fluorescence levels were detected by flow cytometry on a FACSCalibur (Becton Dickinson, Milan, Italy) and analyzed using CellQuest software. The number of events collected for each sample varied between 15,000 and 50,000. After doublets exclusion, an extended analysis of the DNA content and calculations of the percentage of cells in each phase of the cell cycle were performed on ModFit Lt software (Verity Software House, Topsham, Me.).

Assay [2] has as its system phosphorylation of p70S6K, RpS6, AKT and MAPK in hTERT-HME1 WT and KI cells. The experiment in a line: Biochemical effects of everolimus: immunoblot and ELISA of phospho-proteins. Type of assay: cell-based, human. The following applies: for levels of phospho-MAPK: FIG. 16E. The method, then: (A, E) After 30 minutes' treatment with everolimus 500 nM, cells of the indicated genotype were lysed and immunoblotted with the anti-phospho-P70S6K, totalP70S6K, phospho-MAPK and total MAPK antibodies (B, C, D) The same lysates were also used for ELISA measurements of total AKT, phosphoAKT (Thr308), phosphoAKT (Ser473), total RpS6 and phosphoRpS6 levels. Numbers indicate the ratio of phosphorylated protein related to total protein levels and are normalized respect to the untreated (NT) hTERT-HME1 WT cells. DKI, Double Knock-In cells carrying both PIK3CA H1047R and KRAS G13D alleles.
SDS PAGE was performed using Invitrogen Precasted gels (Invitrogen Carlsbad, Calif.); western blotting transfer onto Hybond-C Extra membranes (Amersham, Amersham Biosciences, Uppsala, Sweden) was done following standard methods. The primary antibodies used for immunoblotting were: Anti-AKT (Cell Signaling, Technology, Danvers, Mass.); Anti-phospho-AKT S473 (Cell Signaling, Technology, Danvers, Mass.); Anti-Actin and Anti-Vinculin (Sigma-Aldrich, St. Louis, Mo.); Phospho-p44/42 Map kinase (Thr202/Tyr204) (Cell Signaling, Technology, Danvers, Mass.); Anti-phospho-EGFR Receptor (Tyr 1068) and Anti EGFR Receptor (Cell Signaling Technology, Danvers, Mass.).

For assay [3], the system named is HKe-3 (HCT116-derivative KRAS WT clone) cells. The experiment in a line: Proliferation under everolimus (72 hours) of cells infected with control or KRASG13D lentivirus. Type of assay: cell-based, human. The following applies: KRAS G13D lentivirus, FIG. 17A. The method, then: (§1) Effect of everolimus (72 hours) on proliferation of HKe-3 (HCT116-derivative KRAS WT clone) (A) and ME-180 (B) cells infected with control or KRASG13D lentivirus.
(§2) The present inventors transduced HCT116-derivative clones that had only the KRAS WT allele (HKe-3), and the […] cancer cell line ME-180 (carrying PIK3CA E545K mutant and KRAS WT) with a lentiviral vector encoding for KRAS G13D cDNA.

The subject of the next assay is ME-180 cells. The description is as above. Type of assay: cell-based, human. The settings on record: KRAS G13D lentivirus, FIG. 17B. Here is the method: as §1, §2
The test system of assay [4] is hTERT-HME1 cells carrying PIK3CA (E545K and H1047R) KI. The experiment in a line: Drug assay: cell viability by ATP content (96 h) and Hoechst/propidium iodide staining, KI versus parental cells; ΔKI pharmarray analysis. The following applies: hTERT-HME1.

The structures appear in SMILES notation.

`CO[C@H]1C[C@@H]2CC[C@@H](C)[C@@](O)(O2)C(=O)C(=O)N2CCCC[C@H]2C(=O)O[C@H]([C@H](C)C[C@@H]2CC[C@@H](OCCO)[C@H](OC)C2)CC(=O)[C@H](C)/C=C(\C)[C@@H](O)[C@@H](OC)C(=O)[C@H](C)C[C@H](C)/C=C/C=C/C=C/1C` [everolimus, Everolimus]: the “slowing of cell growth (CFSE)” value is on record as “less pronounced” in assay [1] (PIK3CA E545K), “particularly evident” in assay [1] (PIK3CA H1047R) and “only minimal” in assay [1] (WT cells). For the same compound, the “levels of phospho-MAPK” value in assay [2] (KRAS G13D mutated cells) is on record as “decreased”; in assay [2] (WT cells and PIK3CA H1047R mutated cells) it was “essentially unchanged”. Besides, the phospho-AKT entry in assay [2] (all genotypes, everolimus 500 nM, 30 minutes, FIG. 16C, D) was “increase”. In assay [2] (everolimus 500 nM, 30 minutes, FIG. 16A), the p70S6K phosphorylation result is listed as “abrogated”. In addition, in assay [2] (everolimus 500 nM, 30 minutes, FIG. 16B), the “activated phospho-RpS6 levels” value is “decrease”. The “response after (re-)introduction of mutated KRAS versus control vector” value in assay [3] is listed as “decreased response to the antiproliferative effects”. In the assay with ME-180 cells, the “response after introduction of mutated KRAS versus control vector” value is recorded as “decreased response to the antiproliferative effects”. Besides, the “pharmarray: differential response of PIK3CA mutated cells versus WT” value in assay [4] (FIG. 5G) is “affecting preferentially”. Besides, the “antiproliferative effect on PIK3CA KI clones versus WT” value in assay [4] (wide range of concentrations, FIG. 6A) is listed as “significant antiproliferative effect only in mutated cells”.
